Source: PubChem BioAssay AID330 (DTP/NCI, 2004)
Where “and” joins values, the source holds several entries; their conditions need not be identical. Equal entries are not always repeated. Toxic doses and inconclusive results are not listed.

Test system: P388 leukemia ip, CD2F1 mice, survival T/C
Experiment: NCI In Vivo Anticancer Drug Screen. Data for tumor model P388 Leukemia (intraperitoneal) in CD2F1 (CDF1) mice
Conditions: endpoint: median survival time, higher = longer survival
Procedure, shortened: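 Mice carrying the transplanted tumor received test compound or vehicle. Survival was recorded in each group, and the value is the treated-group measurement divided by that of the vehicle-treated control group.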

[1] = dose: 100.0 mg/kg/injection, schedule: Q01DX009 (ip), vehicle: saline with Tween-80
[2] = dose: 50.0 mg/kg/injection, schedule: Q01DX005 (ip), vehicle: saline with Tween-80
[3] = dose: 50.0 mg/kg/injection, schedule: Q01DX005 (ip), vehicle: Klucel (hydroxypropylcellulose) (HPC)
[4] = dose: 100.0 mg/kg/injection, schedule: Q01DX005 (ip), vehicle: Klucel (hydroxypropylcellulose) (HPC)
[5] = dose: 25.0 mg/kg/injection, schedule: Q01DX009 (ip), vehicle: saline with Tween-80
[6] = dose: 50.0 mg/kg/injection, schedule: Q01DX009 (ip), vehicle: suspension in saline

Compound: c1ccc(-n2cncn2)cc1
- T/C (dose: 60.0 mg/kg/injection, schedule: Q01DX005 (ip), vehicle: saline): 95 % of control
- T/C (dose: 120.0 mg/kg/injection, schedule: Q01DX005 (ip), vehicle: saline): 100 % of control
- T/C (dose: 240.0 mg/kg/injection, schedule: Q01DX005 (ip), vehicle: saline): 101 % of control

Compound: CCOC(=O)Cc1cc2cc(OCC)ncc2cc1C
- T/C (dose: 6.25 mg/kg/injection, schedule: Q01DX009 (ip), vehicle: distilled water + Tween-80): 91 % of control
- T/C (dose: 12.5 mg/kg/injection, schedule: Q01DX009 (ip), vehicle: distilled water + Tween-80): 89 % of control
- T/C (dose: 25.0 mg/kg/injection, schedule: Q01DX009 (ip), vehicle: distilled water + Tween-80): 103 % of control
- T/C (dose: 50.0 mg/kg/injection, schedule: Q01DX009 (ip), vehicle: distilled water + Tween-80): 99 % of control
- T/C (dose: 100.0 mg/kg/injection, schedule: Q01DX009 (ip), vehicle: distilled water + Tween-80): 94 % of control
- T/C (dose: 200.0 mg/kg/injection, schedule: Q01DX009 (ip), vehicle: distilled water + Tween-80): 109 % of control
- T/C (dose: 400.0 mg/kg/injection, schedule: Q01DX009 (ip), vehicle: distilled water + Tween-80): 102 % of control

Compound: CC(=O)Oc1ccc[nH]c1=O
- T/C [1]: 104 % of control
- T/C (dose: 100.0 mg/kg/injection, schedule: Q04DX003 (ip), vehicle: saline with Tween-80): 113 % of control
- T/C (dose: 200.0 mg/kg/injection, schedule: Q01DX009 (ip), vehicle: saline with Tween-80): 118 % of control
- T/C (dose: 200.0 mg/kg/injection, schedule: Q04DX003 (ip), vehicle: saline with Tween-80): 104 % of control
- T/C (dose: 300.0 mg/kg/injection, schedule: Q01DX009 (ip), vehicle: saline): 155 % of control
- T/C (dose: 400.0 mg/kg/injection, schedule: Q01DX009 (ip), vehicle: saline): 158 % of control
- T/C (dose: 400.0 mg/kg/injection, schedule: Q04DX003 (ip), vehicle: saline with Tween-80): 109 % of control
- T/C (dose: 500.0 mg/kg/injection, schedule: Q01DX009 (ip), vehicle: saline): 87 % of control and 91 % of control
- T/C (dose: 600.0 mg/kg/injection, schedule: Q01DX009 (ip), vehicle: saline sonified): 115 % of control
- T/C (dose: 600.0 mg/kg/injection, schedule: Q01DX009 (ip), vehicle: saline with Tween-80): 172 % of control
- T/C (dose: 600.0 mg/kg/injection, schedule: Q01DX009 (ip), vehicle: saline): 110 % of control

Compound: O=C(c1cccc2c1Oc1ccccc1S2)c1cccc2c1Oc1ccccc1S2
- T/C [2]: 113 % of control
- T/C (dose: 100.0 mg/kg/injection, schedule: Q01DX005 (ip), vehicle: saline with Tween-80): 103 % of control
- T/C (dose: 200.0 mg/kg/injection, schedule: Q01DX005 (ip), vehicle: saline with Tween-80): 103 % of control

Compound: Nc1nc(C(Br)Br)c([N+](=O)[O-])c(=O)[nH]1
- T/C (dose: 12.0 mg/kg/injection, schedule: Q01DX005 (ip), vehicle: saline with Tween-80): 97 % of control
- T/C (dose: 12.5 mg/kg/injection, schedule: Q01DX005 (ip), vehicle: saline with Tween-80): 100 % of control
- T/C (dose: 25.0 mg/kg/injection, schedule: Q01DX005 (ip), vehicle: saline with Tween-80): 104 % of control and 94 % of control
- T/C [2]: 112 % of control and 97 % of control

Compound: COc1cc(C/C(=N/N=C(N)N)C(=O)O)cc(OC)c1OC
- T/C (dose: 100.0 mg/kg/injection, schedule: Q01DX001 (ip), vehicle: saline): 99 % of control
- T/C (dose: 200.0 mg/kg/injection, schedule: Q01DX001 (ip), vehicle: saline): 100 % of control
- T/C (dose: 400.0 mg/kg/injection, schedule: Q01DX001 (ip), vehicle: saline): 100 % of control

Compound: O=c1n(-c2ccccc2)c(=O)n2n1C1CC3c4ccccc4C1C32 (stereo not given)
- T/C (dose: 25.0 mg/kg/injection, schedule: Q01DX005 (ip), vehicle: Klucel (hydroxypropylcellulose) (HPC)): 101 % of control
- T/C [3]: 97 % of control
- T/C [4]: 94 % of control

Compound: CN(C)C(=N)N(C)C
- T/C [5]: 100 % of control
- T/C (dose: 50.0 mg/kg/injection, schedule: Q01DX009 (ip), vehicle: saline with Tween-80): 100 % of control
- T/C [1]: 95 % of control

Compound: Cc1ccccc1N=Nc1c(N)ccc2ccccc12
- T/C (dose: 100.0 mg/kg/injection, schedule: Q01DX009 (ip), vehicle: Klucel (hydroxypropylcellulose) (HPC)): 105 % of control
- T/C (dose: 200.0 mg/kg/injection, schedule: Q01DX009 (ip), vehicle: Klucel (hydroxypropylcellulose) (HPC)): 111 % of control
- T/C (dose: 400.0 mg/kg/injection, schedule: Q01DX009 (ip), vehicle: Klucel (hydroxypropylcellulose) (HPC)): 109 % of control

Compound: CC1CC2=C(C1)C(C1(C)C(=O)CC3C(C1=O)C3(C)C)C(C)C2=O (stereo not given)
- T/C (dose: 12.5 mg/kg/injection, schedule: Q01DX001 (ip), vehicle: Klucel (hydroxypropylcellulose) (HPC)): 100 % of control
- T/C (dose: 25.0 mg/kg/injection, schedule: Q01DX001 (ip), vehicle: Klucel (hydroxypropylcellulose) (HPC)): 96 % of control
- T/C (dose: 50.0 mg/kg/injection, schedule: Q01DX001 (ip), vehicle: Klucel (hydroxypropylcellulose) (HPC)): 102 % of control
- T/C (dose: 100.0 mg/kg/injection, schedule: Q01DX001 (ip), vehicle: Klucel (hydroxypropylcellulose) (HPC)): 96 % of control

Compound: Nc1nc(SCc2ccccc2)c2ncn(CCCl)c2n1
- T/C (dose: 0.78 mg/kg/injection, schedule: Q01DX009 (ip), vehicle: saline): 97 % of control
- T/C (dose: 1.56 mg/kg/injection, schedule: Q01DX009 (ip), vehicle: saline): 101 % of control
- T/C (dose: 3.12 mg/kg/injection, schedule: Q01DX009 (ip), vehicle: saline): 105 % of control
- T/C (dose: 6.25 mg/kg/injection, schedule: Q01DX009 (ip), vehicle: saline): 102 % of control and 95 % of control
- T/C (dose: 6.25 mg/kg/injection, schedule: Q01DX009 (ip), vehicle: suspension in saline): 103 % of control
- T/C (dose: 25.0 mg/kg/injection, schedule: Q01DX009 (ip), vehicle: saline): 100 % of control
- T/C (dose: 50.0 mg/kg/injection, schedule: Q01DX009 (ip), vehicle: saline): 111 % of control
- T/C [6]: 94 % of control

Compound: CC1=CC(=C2C(=O)c3ccccc3C2=O)C=C(C)N1CC#CCN1CCCCC1
- T/C [3]: 108 % of control
- T/C [4]: 98 % of control
- T/C (dose: 200.0 mg/kg/injection, schedule: Q01DX005 (ip), vehicle: Klucel (hydroxypropylcellulose) (HPC)): 88 % of control
- T/C (dose: 240.0 mg/kg/injection, schedule: Q01DX005 (ip), vehicle: Klucel (hydroxypropylcellulose) (HPC)): 90 % of control

Compound: CCC1OC(=O)CC(O)C(C)C(OC2OC(C)C(O)C(N(C)C)C2O)C(CC=O)CC(C)C(=O)/C=C/C2(C)OC2C1C (stereo not given)
- T/C (dose: 9.38 mg/kg/injection, schedule: Q01DX009 (ip), vehicle: Klucel (hydroxypropylcellulose) (HPC)): 110 % of control
- T/C (dose: 9.4 mg/kg/injection, schedule: Q01DX009 (ip), vehicle: Klucel (hydroxypropylcellulose) (HPC)): 95 % of control
- T/C (dose: 18.75 mg/kg/injection, schedule: Q01DX009 (ip), vehicle: Klucel (hydroxypropylcellulose) (HPC)): 101 % of control and 119 % of control
- T/C (dose: 37.5 mg/kg/injection, schedule: Q01DX009 (ip), vehicle: Klucel (hydroxypropylcellulose) (HPC)): 103 % of control
- T/C (dose: 75.0 mg/kg/injection, schedule: Q01DX009 (ip), vehicle: Klucel (hydroxypropylcellulose) (HPC)): 101 % of control and 123 % of control
- T/C (dose: 150.0 mg/kg/injection, schedule: Q01DX009 (ip), vehicle: Klucel (hydroxypropylcellulose) (HPC)): 124 % of control

Compound: CCCC(=O)O.CCCC(=O)O.CCCC(=O)O.CCCC(=O)O.O=P1(N(CCCl)CCCl)NCCCO1.O=P1(N(CCCl)CCCl)NCCCO1.[Rh].[Rh] (stereo not given)
- T/C (dose: 0.13 mg/kg/injection, schedule: Q01DX009 (ip), vehicle: olive oil, sesame oil, peanut oil): 103 % of control
- T/C (dose: 0.25 mg/kg/injection, schedule: Q01DX009 (ip), vehicle: olive oil, sesame oil, peanut oil): 112 % of control
- T/C (dose: 0.5 mg/kg/injection, schedule: Q01DX009 (ip), vehicle: olive oil, sesame oil, peanut oil): 101 % of control
- T/C (dose: 1.0 mg/kg/injection, schedule: Q01DX009 (ip), vehicle: olive oil, sesame oil, peanut oil): 117 % of control

Compound: Cc1cc(NC(=O)CCc2ccc(N3C(N)=NC(N)=NC3(C)C)cc2)ccc1S(=O)(=O)F
- T/C (dose: 1.5 mg/kg/injection, schedule: Q01DX009 (ip), vehicle: saline sonified): 122 % of control
- T/C [5]: 150 % of control
- T/C [1]: 113 % of control

Compound: CCOC(=O)CN1C=CC(=C/C(=N/S(=O)(=O)c2ccc(C)cc2)SC)C=C1
- T/C (dose: 25.0 mg/kg/injection, schedule: Q04DX002 (ip), vehicle: saline with Tween-80): 100 % of control
- T/C (dose: 50.0 mg/kg/injection, schedule: Q04DX002 (ip), vehicle: saline with Tween-80): 106 % of control
- T/C (dose: 100.0 mg/kg/injection, schedule: Q04DX002 (ip), vehicle: saline with Tween-80): 104 % of control

Compound: C(=N\Nc1nn[nH]n1)/c1ccccc1
- T/C [6]: 98 % of control
- T/C (dose: 100.0 mg/kg/injection, schedule: Q01DX009 (ip), vehicle: suspension in saline): 97 % of control
- T/C (dose: 200.0 mg/kg/injection, schedule: Q01DX009 (ip), vehicle: suspension in saline): 104 % of control
